The text below walks through data of US10654896B2, “FoxP3-binding peptides and uses thereof” (FUNDACIÓN PARA LA INVESTIGACIÓN MÉDICA APLICADA, priority 2016, dated 2020).

By inhibition is commonly meant the drop in the measured response relative to a control, in per cent. One may read the share remaining as what is left of the initial amount, in per cent.

Where a SMILES comes first, the peptide text is derived from it. [ ]: non-standard residue; d: D form.

In data set [1] the target is T1, FOXP3/FOXP3 homodimerization (Homo sapiens, UniProt Q9BZS1).
T1 construct: made in house; host or cells: E. coli BL21 (DE3)
T1 sequence (Q9BZS1 1-431): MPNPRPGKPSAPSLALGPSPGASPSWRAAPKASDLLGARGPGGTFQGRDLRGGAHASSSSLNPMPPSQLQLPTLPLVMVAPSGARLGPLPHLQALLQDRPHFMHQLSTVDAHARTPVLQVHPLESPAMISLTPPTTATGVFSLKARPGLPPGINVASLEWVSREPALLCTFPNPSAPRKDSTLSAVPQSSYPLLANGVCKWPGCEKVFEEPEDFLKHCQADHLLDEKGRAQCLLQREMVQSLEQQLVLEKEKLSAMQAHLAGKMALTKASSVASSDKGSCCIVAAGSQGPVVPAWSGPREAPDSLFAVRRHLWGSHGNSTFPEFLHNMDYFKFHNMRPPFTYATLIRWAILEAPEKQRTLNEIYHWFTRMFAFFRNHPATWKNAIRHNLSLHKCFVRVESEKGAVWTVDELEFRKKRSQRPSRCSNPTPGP
As to the kind of experiment: FOXP3/FOXP3 homodimerization inhibition (Alphascreen). The class given is biochemical. The text has this:
Plasmid pET20b FOXP3-His was generated to produce the human FOXP3 tagged with 6 histidines at the C terminus of the protein. Briefly, plasmid pDEST15-FOXP3 (provided by Dr. Casal, Madrid, Spain) was used as template to amplify FOXP3 by PCR using the primers Upper FOXP3 Ndel catatgcccaaccccaggc (SEQ ID NO: 55) and Lower FOXP3 […] (SEQ ID NO: 56). The resulting fragment was subcloned in pET20b at Ndel and NotI sites. pET45b His-Runx1 was obtained by PCR of activated human CD4 T cells obtained from healthy volunteers (after the signature of an informed consent) using the primers Upper Runx1 atgcgtatccccgtagatg (SEQ ID NO: 57) and Lower Runx1 […] (SEQ ID NO: 58) and the fragment was cloned in pcDNA3.1. Then, pET45b and pcDNA3.1-Runx1 were digested with BamHI and NotI and ligated to obtain pET45b-Runx1. Plasmids were used to transform BL21 cells (DE3; Novagen, Schwalbach, Germany) for the expression of the recombinant protein. The transformed BL21 cells were grown in LB medium at 37° C. (1 liter of final culture medium) (with ampicilin 0.1 mg/ml). Once the OD of the culture was between 0.5 and 1.0, IPTG (0.4 mM, final concentration) was added. Bacteria were then cultured overnight in agitation and centrifuged for 10 min at 8000 rpm. Cell pellet was then resuspended in 4 ml Tris-HCl 0.1 M and frozen at −80° C. Cell pellet was then thawed and incubated with lisozyme (25 KU) and a protease inhibitor cocktail for 15 min at 30° C. before cell lysis induced with a French-press. The resultant pool was then centrifuged during 20 min at 11.000 rpm). The recombinant protein was purified from the soluble fraction of French-press cell extracts by affinity chromatography (Histrap, Pharmacia) following manufacturer's instructions and using an FPLC platform (AKTA, Pharmacia). Plasmid pDEST15-FOXP3 encoding the fusion protein GST-FOXP3 (GST fused to the isoform A from human FOXP3 gene), was transformed into BL21 cells for the expression of the recombinant protein. GST-FOXP3 protein was purified from the soluble fraction of cell extracts obtained, as described above, by affinity chromatography (GSTrap; Amersham, Piscataway, N.J.) using a fast protein liquid chromatography platform (AKTA; Amersham) following manufacturer's instructions. The eluted proteins were desalted using Hitrap desalting columns (Pharmacia) and analyzed by SDS-PAGE using Coomassie blue (Bio-Safe Coomassie reagent; Bio-Rad, Hercules, Calif.) and by Western blot.
It has been described that dimerization of FOXP3 is required for its function as a transcriptional regulator. Moreover, interaction between FOXP3 and the transcription factor Runx1, is crucially required for normal hematopoiesis including thymic T-cell development, but also for Treg suppressor activity (Reviewed in Lozano et al, Front Oncol. 2013, 3:294). Both activities are mediated by the intermediate region of Foxp3, which is the area of interaction between P60 and Foxp3. Thus, we studied the effect of P60 and their mutants on the FOXP3/Runx1 heterodimerization, as well as FOXP3/FOXP3 homodimerization by Alphascreen technology according to the manufacturer's instructions (Perkin Elmer, Benelux). AlphaScreen™ is a bead-based technology that is designed to measure the proximity of donor and acceptor beads conjugated to biomolecules of interest.
To measure FOXP3/FOXP3 homodimerization, recombinant Foxp3 was expressed with a Histine tag as disclosed in section (1) above, and captured by Nickel chelate Acceptor beads (Cat. AL108 Perkin Elmer) following manufacturer's instructions. The other version of recombinant FOXP3, expressing a GST tag (prepared as disclosed in section (1) above), was captured by Glutathione Donor beads (Perkin Elmer Cat. 6765300), following manufacturer's instructions. When the two proteins interacted together, the Donor and Acceptor beads come into proximity. Excitation of the Donor beads results in emission of light from the Acceptor beads. […]
In general terms: Bead proximity is the source of the signal in Alpha formats.

A short description of data set [2]: Human liver microsomal stability. The class given is in vitro ADME. The note with it: human liver microsomes; for remaining at 20 min, 1 μM: read-out: % Remaining after 20 min; for remaining at 1 h, 1 μM: 60 min, read-out: % Remaining after 60 min; for half-life: peptide 1 μM, read-out: t1/2. The method, then: (§1) The data collected were analyzed to calculate a half-life (t1/2, min) for tested peptides at a final concentration of 1 μM. Briefly, 5 μL of stock solution of tested peptide (10 mM) were diluted in 495 μL of 1:1 Methanol/Water (final concentration of 100 μM, 50% MeOH). Then, 50 μL of this intermediate solution were diluted in 450 μL of 100 mM potassium phosphate buffer to a concentration of 10 μM (working solution, 5% MeOH). The NADPH regenerating system contains β-Nicotinamide adenine dinucleotide phosphate (Sigma, Cat. # N0505), Isocitric acid (Sigma, Cat. #11252) and Isocitric dehydrogenase (Sigma, Cat. #12002) at a final concentration of 1 unit/mL at incubation.
(§2) Human liver microsomes were obtained from BD Gentest (Cat. #452117) and mouse liver microsomes from Xenotech (Cat. # M1000), to a final concentration of 0.7 mg protein/mL. A volume of 10 μL of peptide solution and 80 μL of microsome solution were added to a 96-well plate and incubated for 10 min at 37° C. The reaction was started by the addition of 10 μL of NADPH regenerating system and stopped by the addition of 300 μL of stop solution (ACN at 4° C., including 100 ng/mL Tolbutamide and 100 ng/mL of Labetalol as internal standard) at different incubation times (0, 5, 10, 20, 30 and 60 min). Concentrations of test compound were quantified by LC-MS/MS methodologies (Shimadzu LC 20-AD/API4000) using peak area ratio of analyte/internal standard and the percent loss of parent compound was calculated under each time point to determine the half-life.

A short description of data set [3]: Mouse liver microsomal stability. The conditions noted are these: mouse liver microsomes; for remaining at 20 min, 1 μM: read-out: % Remaining after 20 min; for remaining at 1 h, 1 μM: 60 min, read-out: % Remaining after 60 min; for half-life: peptide 1 μM. Format: in vitro ADME. The method, then: as §1, §2

For H-RDFQSFRKMWPFFAM-OH [compound 1], the inhibition at 100 µM in data set [1] (read-out: Dimerization inhibition % inhibition (100 μM)) turned out to be 59.7%.
With `CSCC[C@@H]1NC(=O)[C@H](C)NC(=O)[C@H](Cc2ccccc2)NC(=O)[C@H](Cc2ccccc2)NC(=O)[C@@H]2CCCN2C(=O)[C@H](Cc2c[nH]c3ccccc23)NC(=O)[C@H](CCSC)NC(=O)[C@H](CCCCN)NC(=O)[C@H](CCCNC(=N)N)NC(=O)[C@H](Cc2ccccc2)NC(=O)[C@H](C)NC(=O)[C@H](CCC(N)=O)NC(=O)[C@H](Cc2ccccc2)NC(=O)[C@H](C)NC(=O)[C@H](CCCNC(=N)N)NC1=O` [compound 50] (cyclo(RAFQAFRKMWPFFAM)), in data set [2], the amount remaining at 20 min, 1 μM was found to be 6.2%; the share remaining at 1 h, 1 μM is 0%; the half-life was found to be 5.3 min. Further, in data set [3], the fraction remaining at 20 min, 1 μM worked out at 12%; the share remaining at 1 h, 1 μM turned out to be 0%; the half-life worked out at 8 min.
In the case of `CSCC[C@H](NC(=O)[C@H](C)NC(=O)[C@H](Cc1ccccc1)NC(=O)[C@H](Cc1ccccc1)NC(=O)[C@@H]1CCCN1C(=O)[C@H](Cc1c[nH]c2ccccc12)NC(=O)[C@H](CCSC)NC(=O)[C@H](CCCCN)NC(=O)[C@H](CCCNC(=N)N)NC(=O)[C@H](Cc1ccccc1)NC(=O)[C@H](CO)NC(=O)[C@H](CCC(N)=O)NC(=O)[C@H](Cc1ccccc1)NC(=O)[C@H](C)NC(=O)[C@H](N)CCCNC(=N)N)C(=O)O` [compound 46] (H-[dR]AFQSFRKMWPFFAM-OH; N-terminus and C-terminus assumed), in data set [1] (read-out: Dimerization inhibition % inhibition (20 μM)), the inhibition at 20 µM came to 90%.
For `CSCC[C@H](NC(=O)[C@H](C)NC(=O)[C@H](Cc1ccccc1)NC(=O)[C@H](Cc1ccccc1)NC(=O)[C@@H]1CCCN1C(=O)[C@H](Cc1c[nH]c2ccccc12)NC(=O)[C@H](CCSC)NC(=O)[C@H](CCCCN)NC(=O)[C@H](CCCNC(=N)N)NC(=O)[C@H](Cc1ccccc1)NC(=O)[C@H](CO)NC(=O)[C@H](CCC(N)=O)NC(=O)[C@H](Cc1ccccc1)NC(=O)[C@@H](CC(=O)O)NC(=O)[C@@H](N)CCCNC(=N)N)C(=O)O` [compound 3] (H-R[dD]FQSFRKMWPFFAM-OH), in data set [2], the share remaining at 20 min, 1 μM was determined as 0%; the share remaining at 1 h, 1 μM was 0%; the half-life was below 2.5 min. In data set [3], the fraction remaining at 20 min, 1 μM is 0%; the fraction remaining at 1 h, 1 μM was determined as 0%; the half-life is below 2.5 min.
